The results in this text go back to patent US9259000B2, “Auxin biosynthesis inhibitor” (Riken, priority 2011, dated 2016).

What all share (type): in vivo
One assay has as its system Arabidopsis. Put plainly: Growth recovery test with IAA, Arabidopsis. Particulars: 8 days. The protocol: Arabidopsis was cultured in a plate vertically set and using ½ MS medium containing 1.5% sucrose, 0.8% agar (0.6% Gelrite in the case of KOK1169), the compound of the present invention and IAA under continuous white light at 22° C. for 8 days. […] In the test, KOK1101 (30 μM), KOK1160 (30 μM), KOK1165 (30 μM), and KOK1169 (100 μM) were studied.

The test system of the next assay is Lettuce. Put plainly: Growth test, Lettuce. As to conditions: 30 μM, 6 days. The protocol: Lettuce was cultured in a plate vertically set and using ½ MS medium containing 1.5% sucrose, 0.8% agar and KOK1101 (30 μM) under continuous white light at 25° C. for 6 days.
The test system of another assay is Tobacco. Put plainly: Growth test, Tobacco. Particulars: compound 100 μM, 7 days after transfer. The protocol:
Tobacco was cultured in a plate vertically set and using ½ MS medium containing 1.5% sucrose and 0.8% agar under continuous white light at 25° C. for 7 days. Thereafter, tobacco was transferred to a plate vertically set and using ½ MS medium containing 1.5% sucrose, 0.8% agar and the compound of the present invention (100 μM) and cultured under continuous white light at 25° C. for 7 days.

The next assay deals with Rice (Nipponbare). Put plainly: Growth test, Rice. Particulars: 50 μM, 6th day after transfer, vs DMSO control.
A further assay has as its system Tomato (Momotaro). Put plainly: Growth test, Tomato. As to conditions: 100 μM, 6th day after transfer, vs DMSO control.
The subject of assay [1] is Physcomitrella patens subsp. patens. Put plainly: Growth test, Physcomitrella patens subsp. patens. Particulars: 100 μM, 7th day after transfer, vs DMSO control.
Setting [2] is: compound 100 μM + IAA 10 nM, 0.6% Gelrite.

As to `COC(=O)[C@H](Cc1ccccc1)ON1C(=O)c2ccccc2C1=O` [KOK 1101], the “main root elongation, recovery by simultaneous application with IAA” value (“main root elongation, recovery” for short) in the assay on Arabidopsis (compound 30 μM + IAA 10 nM) is “recovered”. In the assay with Arabidopsis (compound 30 μM + IAA 100 nM), the “growth of an aerial part, recovery by simultaneous application with IAA” value (shortened to “growth of an aerial part, recovery”) is recorded as “recovered”. In the assay with Lettuce, the “growth of the aerial part” value was “Apparent growth inhibition”, the “main root elongation (underground part)” value is given as “promotion” and the “root hair formation (underground part)” value is reported as “inhibition”.
For `COC(=O)[C@H](Cc1cccc2ccccc12)ON1C(=O)c2ccccc2C1=O` [KOK 1160], in the assay on Arabidopsis (compound 30 μM + IAA 10 nM), the “growth of an aerial part, recovery” value is “recovered” and the “main root elongation, recovery” value is “recovered”.
As for `COC(=O)[C@H](Cc1ccc2ccccc2c1)ON1C(=O)c2ccccc2C1=O` [KOK 1165], in the assay on Arabidopsis (compound 30 μM + IAA 10 nM), the “growth of an aerial part, recovery” value is listed as “recovered” and the “main root elongation, recovery” value is recorded as “recovered”.
For the molecule `NO[C@@H](Cc1cccc2ccccc12)C(=O)O` [KOK 1167], in the assay on Tobacco, the “Note (morphology)” value was “Auxin-excess like morphology”.
Turning to `COC(=O)[C@H](Cc1ccc2ccccc2c1)ON` [KOK 1168], the growth of seedling entry with Rice (Nipponbare) is on record as “remarkably inhibited”. In the assay with Tomato (Momotaro), the growth of seedling result was “remarkably inhibited”. Further, in assay [1], the differentiation into forage entry was “inhibited” and the growth of protonemata entry is reported as “remarkably inhibited”.
With `NO[C@@H](Cc1ccc2ccccc2c1)C(=O)O` [KOK 1169], in the assay with Arabidopsis (setting [2]), the “growth of an aerial part, recovery” value is reported as “recovered” and the “main root elongation, recovery” value is on record as “recovered”.
As for `NOC(Cc1cccc(Cl)c1)C(=O)O` (centres unmarked) [KOK 1187], in the assay with Tobacco, the “Note (morphology)” value is reported as “Auxin-excess like morphology”.
